Experimental data reported in patent US10300042B2, “Apremilast for the treatment of a liver disease or a liver function abnormality” (Celgene Corporation, priority 2014, dated 2019).

How the values were obtained:
PDE4 = PDE4 enzyme inhibition (enzyme purified from U937 human monocytic cells); assay type: biochemical; conditions: 1 μM cAMP, 45 min at 30° C.
Description: Phosphodiesterase 4 enzyme was purified from U937 human monocytic cells by gel filtration chromatography, and phosphodiesterase reactions were carried out as previously described. See Muller et al., Bioorg. Med. Chem. Lett., 1998, 8(19): 2669-2674. Briefly, reactions were carried out in 96-well deep-well plates in 50 mM Tris HCl pH 7.5, 5 mM MgCl2, 1 μM cyclic adenosine monophosphate (cAMP), plus 10 nM [3H]-cAMP for 45 min at 30° C. The reactions were terminated by boiling, treated with 1 mg/ml snake venom, and separated using AG-1X8 ion exchange resin (BioRad). Reactions consumed less than 15% of available substrate.

TNF-α = assay: Inhibition of TNF-α production in PBMCs; assay type: cell-based; conditions: PBMC
Description: The test methods were as described in WO 03/080049; Muller et al., J. Med. Chem., 1996, 39:3238; and Muller et al., Bioorg. Med. Chem. Lett., 1999, 9:1625-30.

PDE5 = PDE5 (Homo sapiens, UniProt O76074); assay: PDE5 enzyme assay; assay type: biochemical
Description: (§1) PDE1, 2, 3 and 5 enzyme assays were prepared as described by Hidaka and Asano. Biochem. Biophys. Acta., 1976, 429:485; see also Nicholsen et al., Trends Pharmaco. Sci., 1991, 12:19. The PDE6 enzyme assay was prepared according to Baehr et al., J. Biol. Chem., 1979, 254:11669 and Gillespie et al., Mol. Pharm., 1989, 36: 773. The PDE7 enzyme assay was prepared according to Bloom and Beavo. Proc. Natl. Acad. Sci. USA, 1996, 93:14188-92.

PDE2 = PDE2 (Homo sapiens, UniProt O00408); assay: PDE2 enzyme assay; assay type: biochemical
PDE2, sequence (O00408 whole entry): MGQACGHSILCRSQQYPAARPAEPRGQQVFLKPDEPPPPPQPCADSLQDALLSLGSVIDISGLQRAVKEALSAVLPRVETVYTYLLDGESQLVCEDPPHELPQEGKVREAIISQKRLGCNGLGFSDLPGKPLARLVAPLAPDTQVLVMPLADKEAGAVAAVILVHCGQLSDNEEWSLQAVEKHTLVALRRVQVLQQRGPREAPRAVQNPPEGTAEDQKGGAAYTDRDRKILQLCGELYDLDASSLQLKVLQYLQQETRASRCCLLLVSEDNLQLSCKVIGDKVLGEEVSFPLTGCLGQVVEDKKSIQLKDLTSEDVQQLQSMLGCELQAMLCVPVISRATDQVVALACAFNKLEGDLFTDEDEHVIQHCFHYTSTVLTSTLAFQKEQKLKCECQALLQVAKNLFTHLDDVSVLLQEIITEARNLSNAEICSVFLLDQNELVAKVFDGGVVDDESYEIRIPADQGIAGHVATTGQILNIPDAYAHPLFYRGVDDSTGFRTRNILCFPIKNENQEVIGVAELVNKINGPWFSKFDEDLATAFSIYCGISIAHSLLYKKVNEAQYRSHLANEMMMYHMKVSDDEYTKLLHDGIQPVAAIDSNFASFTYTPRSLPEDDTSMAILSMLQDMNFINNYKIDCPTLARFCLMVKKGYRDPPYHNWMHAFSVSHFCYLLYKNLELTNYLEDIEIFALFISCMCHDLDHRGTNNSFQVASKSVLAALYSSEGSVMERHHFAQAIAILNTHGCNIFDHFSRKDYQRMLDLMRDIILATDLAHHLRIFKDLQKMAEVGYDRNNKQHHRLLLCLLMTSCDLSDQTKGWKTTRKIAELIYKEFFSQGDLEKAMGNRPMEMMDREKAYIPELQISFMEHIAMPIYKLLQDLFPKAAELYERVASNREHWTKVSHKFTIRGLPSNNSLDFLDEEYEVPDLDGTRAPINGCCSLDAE
Description: as §1

[1] = test system: Aspartate Aminotransferase; assay: AST levels in RA-002 (rheumatoid arthritis); assay type: in vivo, human; conditions: for AST High to Normal, percent of patients / AST Net Benefit / AST Normal to High, percent of patients: end of treatment (week 16); for AST High, % of patients / AST Low, % of patients / AST Normal, % of patients: Week 16
Description: The improvement in mild baseline liver function test abnormalities has been observed with apremilast daily use without any prescribed changes in physical activity, social or dietary habits. During the course of the study, there was observed a higher proportion of subjects in the 30 mg BID apremilast treatment group with normal LFTs at subsequent placebo-controlled study visits at week 16. See Tables 17 to 24 from RA-002 studies.

Alanine Aminotransferase = assay: ALT levels in PSOR-008 and PSOR-009 (plaque psoriasis); assay type: in vivo, human; conditions: for ALT High, % of patients / ALT Low, % of patients / ALT Normal, % of patients: Week 16, 30 mg BID
Description: (§2) Apremilast was studied in Phase 3 trials in patients with moderate to severe plaque psoriasis. […] The improvement in mild baseline liver function test abnormalities has been observed with apremilast daily use without any prescribed changes in physical activity, social or dietary habits. During the course of the study, there was observed a higher proportion of subjects in the apremilast treatment group (30 mg BID) with normal LFTs (i.e. normal levels of ALT and AST) at subsequent placebo-controlled study visits at week 16. See Tables 11 to 16 from PSOR-008 and PSOR-009 studies.

[2] = test system: Aspartate Aminotransferase; assay: AST levels in PSOR-008 and PSOR-009 (plaque psoriasis); assay type: in vivo, human; conditions: for AST High, % of patients / AST Low, % of patients / AST Normal, % of patients: Week 16, 30 mg BID
Description: as §2

PDE3 = PDE3 enzyme assay; assay type: biochemical; conditions: at 10 μM
Description: as §1

[3] = 30 BID, end of treatment (week 16)

## CCOc1cc([C@@H](CS(C)(=O)=O)N2C(=O)c3cccc(NC(C)=O)c3C2=O)ccc1OC [Apremilast, (+)-2-[1-(3-ethoxy-4-methoxyphenyl)-2-methylsulfonylethyl]-4-acetylaminoisoindoline-1,3-dione]
PDE4
  IC50: 73.5 nM
TNF-α
  IC50: 77 nM
PDE5
  inhibition at 10 µM: 3%
PDE2
  inhibition at 10 µM: 6%
[1]; 20 BID
  AST High to Normal, percent of patients: 50.0%
  AST Net Benefit: 33.3%
  AST Normal to High, percent of patients: 3.0%
[1]; 30 BID
  AST High to Normal, percent of patients: 100.0%
  AST Net Benefit: 50.0%
  AST Normal to High, percent of patients: 4.7%
[1]; 30 BID, week 16
  AST High to Normal, Difference between Placebo and APR 30 BID: 50%
  AST Net Benefit, Difference between Placebo and APR 30 BID: 16.7%
  AST Normal to High, Difference between Placebo and APR 30 BID: 1.7%
[1]; 30 BID, week 16, listed as APR
  AST High to Normal, Difference between Placebo and APR 30 BID: 50.0%
[1]; Baseline High, 20 mg BID
  AST High, % of patients: 50.0%
  AST Low, % of patients: 0.0%
  AST Normal, % of patients: 50.0%
[1]; Baseline High, 30 mg BID
  AST High, % of patients: 0.0%
  AST Low, % of patients: 0.0%
  AST Normal, % of patients: 100.0%
[1]; Baseline Normal, 20 mg BID
  AST High, % of patients: 3.0%
  AST Low, % of patients: 0.0%
  AST Normal, % of patients: 97.0%
[1]; Baseline Normal, 30 mg BID
  AST High, % of patients: 4.7%
  AST Low, % of patients: 0.0%
  AST Normal, % of patients: 95.3%
[1]; Baseline Total, 20 mg BID
  AST High, % of patients: 5.7%
  AST Low, % of patients: 0.0%
  AST Normal, % of patients: 94.3%
[1]; Baseline Total, 30 mg BID
  AST High, % of patients: 4.5%
  AST Low, % of patients: 0.0%
  AST Normal, % of patients: 95.5%
Alanine Aminotransferase; [3]
  ALT High to Normal, percent of patients: 57.1%
  ALT Net Benefit: 53.7%
  ALT Normal to High, percent of patients: 3.7%
Alanine Aminotransferase; 30 BID, week 16
  ALT High to Normal, Difference (APR 30 BID vs Placebo): 3.1%
  ALT Net Benefit, Difference (APR 30 BID vs Placebo): 17.9%
  ALT Normal to High, Difference (APR 30 BID vs Placebo): −2.1%
Alanine Aminotransferase; 30 BID, week 16, listed as APR
  ALT High to Normal, Difference (APR 30 BID vs Placebo): 3.1%
Alanine Aminotransferase; Baseline High
  ALT High, % of patients: 42.9%
  ALT Low, % of patients: 0.0%
  ALT Normal, % of patients: 57.1%
Alanine Aminotransferase; Baseline Normal
  ALT High, % of patients: 3.7%
  ALT Low, % of patients: 0.0%
  ALT Normal, % of patients: 96.3%
Alanine Aminotransferase; Baseline Total
  ALT High, % of patients: 7.8%
  ALT Low, % of patients: 0.0%
  ALT Normal, % of patients: 92.2%
[2]; [3]
  AST High to Normal, percent of patients: 60.3%
  AST Net Benefit: 46.3%
  AST Normal to High, percent of patients: 2.8%
[2]; 30 BID, week 16
  AST High to Normal, Difference (APR 30 BID vs Placebo): 17.9%
  AST Net Benefit, Difference (APR 30 BID vs Placebo): 12.2%
  AST Normal to High, Difference (APR 30 BID vs Placebo): 0.3%
[2]; 30 BID, week 16, listed as APR
  AST High to Normal, Difference (APR 30 BID vs Placebo): 17.9%
[2]; Baseline High
  AST High, % of patients: 39.7%
  AST Low, % of patients: 0.0%
  AST Normal, % of patients: 60.3%
[2]; Baseline Normal
  AST High, % of patients: 2.8%
  AST Low, % of patients: 0.0%
  AST Normal, % of patients: 97.2%
[2]; Baseline Total
  AST High, % of patients: 5.9%
  AST Low, % of patients: 0.0%
  AST Normal, % of patients: 94.1%
PDE3
  % inhibition PDE3: 20%
